The values that follow come from patent US6805816B1, “Method of producing π-conjugated polymers” (Bayer Aktiengesellschaft, priority 1999, dated 2004).

A short description of one data set: physchem. The source says: The cyclodextrin employed was in each case 2,6-dimethyl-β-cyclodextrin.
Data set [1] can be described thus: Stability: discoloration in air. The settings on record: Monomer alone; in air after only a few hours.

Converted amounts (≈) assume the structure as drawn.

With `c1scc2c1OCCO2` [EDT, 3,4-ethylenedioxythiophene], the “increase of water solubility” value in the data set “physchem” is “more than 30 fold”. The compound also displayed a solubility in “physchem” (20 °C, water) of 2100 µg/mL (≈ 14.8 mM).

On to `c1cc[nH]c1` [Pyrrole, pyrrole], for which, in data set [1], the Stability result is listed as “Pyrrole: discoloration”.

As usually defined, the solubility is the concentration that dissolves in the medium under given conditions.
